Source: US9738932B2, “Biomarkers for cardiovascular side-effects induced by cox-2 inhibitory compounds” (FIRALIS SAS, priority 2005, dated 2017)

Test system: mRNA expression in cardiovascular tissues
Experiment: Affymetrix GeneChip mRNA expression profiling of monkey tissues (iliac vein, pulmonary vein, aorta, carotid artery, heart) after two-week oral-gavage treatment
Details: iliac vein; group avg, Vioxx without A60055

O=C(O)Cc1ccccc1Nc1c(Cl)cccc1Cl [Voltaren]
1.1 fold: HLA-A (211528_x_at) avg fold change vs control | HLA-DRA (208894_at) avg fold change vs control | HLA-DRB3 (209312_x_at) avg fold change vs control | ICAM1 (215485_s_at) avg fold change vs control | ICSBP1 (204057_at) avg fold change vs control | IRF1 (202531_at) avg fold change vs control | JAK1 (214377_s_at) avg fold change vs control | LYN (210754_s_at) avg fold change vs control | PRG1 (201858_s_at) avg fold change vs control | STAT1 (AFFX-HUMISGF3A/M97935_MB_at) avg fold change vs control | TNFSF10 (202688_at) avg fold change vs control
1.6 fold: HLA-A (211530_x_at) avg fold change vs control | HLA-DQB1 (211654_x_at) avg fold change vs control | IFITM2 (201315_x_at) avg fold change vs control | LRMP (204674_at) avg fold change vs control
2.3 fold: STAT1 (209969_s_at) avg fold change vs control
0.5 fold: XCL1 (214567_s_at) avg fold change vs control
0.3 fold: PCOLCE (202465_at) avg fold change vs control
0.8 fold: HHL (203020_at) avg fold change vs control | IFIT2 (217502_at) avg fold change vs control | IGFBP4 (201508_at) avg fold change vs control | LAIR1 (208071_s_at) avg fold change vs control | LILRB1 (207857_at) avg fold change vs control | PRC1 (218009_s_at) avg fold change vs control
2.2 fold: HLA-DQB2 (212998_x_at) avg fold change vs control
1.0 fold: HFE (211863_x_at) avg fold change vs control | HLA-DMB (203932_at) avg fold change vs control | HLA-DRA (210982_s_at) avg fold change vs control | HLA-DRB6 (217362_x_at) avg fold change vs control | HLA-F (204806_x_at) avg fold change vs control | HLA-F (221875_x_at) avg fold change vs control | IFIT1 (203153_at) avg fold change vs control | ITGB2 (202803_s_at) avg fold change vs control | PLA2G4C (209785_s_at) avg fold change vs control | PLCL2 (216217_at) avg fold change vs control | STAT1 (AFFX-HUMISGF3A/M97935_5_at) avg fold change vs control | STAT1 (AFFX-HUMISGF3A/M97935_MA_at) avg fold change vs control | TAPBP (208829_at) avg fold change vs control | TRGC2 (211144_x_at) avg fold change vs control
0.9 fold: HFE (211329_x_at) avg fold change vs control | HFE (211332_x_at) avg fold change vs control | HFE (211866_x_at) avg fold change vs control | IFIT4 (204747_at) avg fold change vs control | LCK (204890_s_at) avg fold change vs control | MAF (209348_s_at) avg fold change vs control | PTPN22 (206060_s_at) avg fold change vs control | TCTEL1 (201999_s_at) avg fold change vs control
1.2 fold: HLA-A (211529_x_at) avg fold change vs control | HLA-B (208729_x_at) avg fold change vs control | HLA-B (209140_x_at) avg fold change vs control | HLA-B (211911_x_at) avg fold change vs control | HLA-C (208812_x_at) avg fold change vs control | HLA-DQA1 (212671_s_at) avg fold change vs control | HLA-DQB1 (211656_x_at) avg fold change vs control | HLA-E (200905_x_at) avg fold change vs control | HLA-E (217456_x_at) avg fold change vs control | IGF1 (209541_at) avg fold change vs control | IL1A (208200_at) avg fold change vs control | IL2RG (204116_at) avg fold change vs control | INPP5D (203332_s_at) avg fold change vs control | IRF7 (208436_s_at) avg fold change vs control | KLKB1 (206541_at) avg fold change vs control | LCP2 (205270_s_at) avg fold change vs control | LILRB1 (211100_x_at) avg fold change vs control | LY86 (205859_at) avg fold change vs control | PRG1 (201859_at) avg fold change vs control | TNFSF6 (210865_at) avg fold change vs control | TNFSF10 (202687_s_at) avg fold change vs control | TRGC2 (216920_s_at) avg fold change vs control
1.7 fold: IFI44 (214453_s_at) avg fold change vs control | TNFAIP3 (202644_s_at) avg fold change vs control
1.5 fold: HLA-C (216526_x_at) avg fold change vs control | ICAM1 (202638_s_at) avg fold change vs control | PLSCR1 (202446_s_at) avg fold change vs control
1.4 fold: IFI30 (201422_at) avg fold change vs control | INDO (210029_at) avg fold change vs control | ISGF3G (203882_at) avg fold change vs control | LILRB3 (208594_x_at) avg fold change vs control | LY96 (206584_at) avg fold change vs control | SOCS3 (206360_s_at) avg fold change vs control | TLR2 (204924_at) avg fold change vs control | VCAM1 (203868_s_at) avg fold change vs control | XLKD1 (219059_s_at) avg fold change vs control
2.1 fold: cig5 (213797_at) avg fold change vs control
5.6 fold: IFI27 (202411_at) avg fold change vs control
1.3 fold: HLA-A (215313_x_at) avg fold change vs control | HLA-C (214459_x_at) avg fold change vs control | HLA-DMA (217478_s_at) avg fold change vs control | HLA-DQB1 (209823_x_at) avg fold change vs control | HLA-DRB1 (215193_x_at) avg fold change vs control | IFITM3 (212203_x_at) avg fold change vs control | IL27RA (205926_at) avg fold change vs control | LILRB3 (210225_x_at) avg fold change vs control | PTPRC (207238_s_at) avg fold change vs control | TLR1 (210176_at) avg fold change vs control | TNFAIP3 (202643_s_at) avg fold change vs control
1.8 fold: XCL1 (206366_x_at) avg fold change vs control
